The subject of one experiment is ATXN3/Q75 aggregation. Nature of the experiment: ATXN3/Q75-GFP aggregation, high-content analysis in Flp-In 293 cells. Conditions: at 100 nM. It is filed as cell-based, human. The source says: For therapies toward the polyQ diseases, we aimed to screen compounds potentially inhibiting polyQ aggregation. As removal of the N-terminal ATXN3 was required for ATXN3 aggregation, GFP-tagged ATXN3/Q14-75 C-terminal fragment was cloned to establish Flp-In 293 cells with inducible ATXN3/Q14-75-GFP expression. Refer to FIG. 2. The GFP antibody detected 40˜57 kDa ATXN3/Q14-75-GFP proteins in doxycycline (+Dox) induced ATXN3 cells. Refer to FIGS. 3A and 3B. While the expressed ATXN3/Q14 was primarily diffused, the expressed ATXN3/Q75-GFP formed aggregates. For high content aggregation analysis, these ATXN3/Q75 cells were seeded onto 96-well plate, treated with tested compounds WCt003, WCt006 and WCt021 for 8 hours, and doxycycline was added to induce ATXN3/Q75-GFP expression for 6 days. Oxaliplatin (5 μM, Sigma) was added for aggregate accumulation through inhibition of DNA synthesis. Then cells were stained with Hochest 33342 (0.1 μg/ml, Sigma) and aggregation percentage was assessed by high-content analysis (HCA) system, with excitation/emission wavelengths at 482/536 (GFP).
Refer to FIG. 4. Cells expressing ATXN3/Q75 were examined with tested compounds WCt003, WCt006 and WCt021. […] WCt003 and WCt006 reduced the ATXN3/Q75 aggregation to 80% to 84% at 10 nM and 100 nM, and WCt021 reduced the ATXN3/Q75 aggregation to 80% to 84% at 1 nM to 100 nM. […]

Experiment [1] in a line: DPPH free radical scavenging assay. It is filed as biochemical. Conditions: absorbance at 517 nm. The source says:
For DPPH (1,1-diphenyl-2-picryl hydrazyl) scavenging activity, the odd electron in the stable DPPH free radical gives a strong absorption maximum at 517 nm and is purple in color. The DPPH assay measured scavenging ability of the antioxidants towards the stable radical. The free radical DPPH was reduced when it reacted with antioxidants and results in decrease in absorbance at 517 nm. The degree of discoloration indicated the scavenging potential of the antioxidant compounds. Refer to FIG. 7.

Experiment [2] in a line: SOD Assay Kit-WST, SOD(-like) activity. It counts as biochemical. Conditions: WST-1 reduction. The source says: For SOD activity, SOD enzyme from human erythrocytes (Sigma, catalog number 59636) and HEK-293 cell lysate (5×10^6/ml) were used as comparison. The SOD Assay Kit-WST from Dojindo was used to determine SOD activity. The assay utilizes WST-1 [2-(4-iodophenyl)-3-(4-nitrophenyl)-5-(2,4)-disulfophenyl-2H-tetrazolium, monosodium salt] that produces a water-soluble formazan dye upon reduction with the superoxide anion. The rate of the reduction of WST-1 with O2^− was linearly related to the xanthine oxidase (XO) activity, and this reduction was inhibited by SOD. Therefore, the IC50 (50% inhibition activity of SOD or SOD-like materials) can be determined by the colorimetric method. Refer to FIG. 6A. […] Refer to FIG. 6B. […] Refer to FIG. 6C.

For `O=C(CCCCCCC(=O)Nc1ccccc1)NO` [SAHA, suberoylanilide hydroxamic acid], in the experiment on ATXN3/Q75 aggregation, the “ATXN3/Q75 aggregation as compared to untreated cells” value is listed as 85%.

`O=c1c(O)c(-c2ccc(O)cc2)oc2cc(O)cc(O)c12` [kaempferol, reference compound] had an EC50 in experiment [1] of 26.7 µM.

As for “SOD enzyme from human erythrocytes: SOD enzyme from human erythrocytes (Sigma), used as comparison”, the “IC50 (SOD activity)” value in experiment [2] is on record as 0.38 U/ml.

The record behind these values is patent US9358239B2, “NiSOD-like compound and its derivatives for suppressing abnormal protein aggregation, recovering cell viability, increasing mature neuron number and neurite outgrowth length and protecting dopaminergic cells by reducing oxidative stress or reactive oxygen species in brain tissues” (National Taiwan Normal University, priority 2012, dated 2016).
